Measured values from patent US6197752A, “Glycomimetics as selectin antagonists and pharmaceuticals having antiinflammatory activity prepared therefrom” (Glycorex AB, priority 1995, dated 2001).
Where two headings read alike, the source gives them in different places.

What was measured:
selectins = conditions: cited from earlier work
[1] = system: leukocyte adhesion on the endothelium; test: LPS-induced leukocyte adhesion in vivo, intravital microscopy in the mesenterium of the rat; conditions: SPRD (m)
Source text: In inflammatory processes and other states which activate the cytokines, a critical part is played by the destruction of tissue by means of leukocytes which migrate in or which block the microcirculation. The first phase, which is critical for the subsequent course of the disease, is the activation of leukocytes within the blood stream, especially in the pre- and post-capillary area. […] All subsequent leukocyte effects, i.e. active migration through the vessel wall and subsequent oriented migration in the tissue, are secondary reactions (Harlan, J. M., Leukocyte-endothelial interaction, Blood 65, 513-525,1985). […]
The induced adhesion of leukocytes is quantified by an investigation technique involving intravital microscopy in the mesenterium of the rat (Atherton A. and Born G.V.R., Quantitative investigations of the adhesiveness of circulating polymorphonuclear leukocytes to blood vessel walls. J. Physiol. 222, 447-474,1972; Seiffge, D. Methoden zur Untersuchung der Rezeptor-vermittelten Interaktion zwischen Leukozyten und Endotheizellen im Entzundungsgeschehen [Methods of investigating receptor-mediated interaction between leukocytes and endothelial cells in the case of inflammation] in: Ersatz- und Erganzungsmethoden zu Tierversuchen in der biomedizinischen Forschung, Schoffl, H. et al., (eds.) Springer, 1995 (in press)). […]

[2] = system: P-selectin-dependent lung injuries; conditions: animal experiments; Mulligan et al. 1993; cited from earlier work
[3] = system: myocardial reperfusion injuries; conditions: animal experiments; Buerke et al. 1994; cited from earlier work
P-Selectin = target: T1, P-Selectin (Homo sapiens, UniProt P16109); conditions: WO 95/04526, WO 94/24145, cited from earlier work
T1 sequence (P16109 42-830): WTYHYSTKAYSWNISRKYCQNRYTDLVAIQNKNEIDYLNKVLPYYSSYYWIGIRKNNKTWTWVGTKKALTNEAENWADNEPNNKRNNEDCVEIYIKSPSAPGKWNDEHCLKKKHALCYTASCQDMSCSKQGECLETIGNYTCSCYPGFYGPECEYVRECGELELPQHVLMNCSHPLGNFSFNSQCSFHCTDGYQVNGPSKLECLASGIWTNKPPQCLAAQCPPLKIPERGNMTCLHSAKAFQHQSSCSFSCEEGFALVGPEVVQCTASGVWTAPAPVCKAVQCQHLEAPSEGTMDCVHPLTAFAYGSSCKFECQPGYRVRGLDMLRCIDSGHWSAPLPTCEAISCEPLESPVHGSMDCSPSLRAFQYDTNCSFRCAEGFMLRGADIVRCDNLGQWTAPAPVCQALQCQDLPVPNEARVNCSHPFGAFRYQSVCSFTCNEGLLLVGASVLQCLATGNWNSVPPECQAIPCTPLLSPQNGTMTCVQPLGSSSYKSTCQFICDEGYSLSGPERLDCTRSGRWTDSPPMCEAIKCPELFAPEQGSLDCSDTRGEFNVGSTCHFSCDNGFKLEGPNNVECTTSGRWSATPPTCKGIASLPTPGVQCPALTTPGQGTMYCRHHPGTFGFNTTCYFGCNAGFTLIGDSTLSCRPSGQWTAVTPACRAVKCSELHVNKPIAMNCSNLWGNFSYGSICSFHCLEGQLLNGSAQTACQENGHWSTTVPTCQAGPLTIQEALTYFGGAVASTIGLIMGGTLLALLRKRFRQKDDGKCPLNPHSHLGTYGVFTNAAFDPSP

5-lipoxygenase = conditions: WO 95/04526; WO 94/24145; cited from earlier work
[4] = WO 95/04526; WO 94/24145; cited from earlier work

SMILES: CC1OC(CC(=O)C2CCCC2C(=O)NC(Cc2ccccc2)C(=O)O)C(O)C(O)C1O (stereo not shown) [Compound 2]
- IC50 (selectins; glycopeptide analogs (WO 95/04751), region of up to): ≤ 1000 µM

SMILES: C[C@@H]1O[C@@H](CCCOC(=O)N2CCC(C(=O)O)CC2)[C@@H](O)[C@H](O)[C@@H]1O [Compound 12c]
- inhibition of leukocyte adhesion ([1]; 3 mg/kg, 1 day i.v.): 58%
- inhibition of leukocyte adhesion ([1]; 20 mg/kg, 1 day p.o.): 29%

SMILES: CC1OC(CCCCC2OC(CO)C(O)C(CCC(=O)O)C2O)C(O)C(O)C1O (stereo not shown) [Compound 3]
- IC50 (selectins; Wong et al., J. Am. Chem. Soc. 1995): 10000 to 20000 µM

SMILES: CC(=O)NC1C(O)CC(OC2C(O)C(CO)OC(OC3C(CO)OC(O)C(NC(C)=O)C3OC3OC(C)C(O)C(O)C3O)C2O)(C(=O)O)OC1C(O)C(O)CO (stereo not shown) [SLeX]
- use in P-selectin-dependent lung injuries [2]: successfully used
- use in myocardial reperfusion injuries [3]: successfully used

SMILES: C=C(CO[C@H]1CC[C@]2(C)[C@H]3C(=O)C=C4[C@@H]5C[C@@](C)(C(=O)O)CC[C@]5(C)CC[C@@]4(C)[C@]3(C)CC[C@H]2C1(C)C)C[C@@H]1O[C@@H](C)[C@@H](O)[C@@H](O)[C@@H]1O [Compound 4a]
- P-selectin inhibition (in words) (P-Selectin): P-selectin inhibition
- IC50 (P-Selectin; read-out: IC50 for binding to P-selectin): 750 µM
- inhibition of 5-lipoxygenase (5-lipoxygenase): inhibition of 5-lipoxygenase
- antimetastatic action [4]: antimetastatic action
